Active and inactive are the calls of the source. The rule behind the calls is not given here.
How the values were obtained:
LX-2 [1] = assay: Anti-fibrosis effect in human LX2 cells assessed as reduction in TGFbeta1-induced alpha-SMA protein expression at 10 to 20 uM measured for 24 hrs; assay type: functional, cell-based; conditions: dose 10-20 µM
LX-2 [2] = assay: Anti-fibrosis effect in human LX2 cells assessed as reduction in TGFbeta1-induced MMP-2 mRNA expression at 10 to 20 uM measured for 24 hrs; assay type: functional, cell-based; conditions: dose 10-20 µM
LX-2 [3] = assay: Anti-fibrosis effect in human LX2 cells assessed as reduction in TGFbeta1-induced integrin subunit alpha-V mRNA expression at 10 to 20 uM measured for 24 hrs; assay type: functional, cell-based; conditions: dose 10-20 µM
HSC-T6 [4] = assay: Anti-fibrosis effect in HSC-T6 cells assessed as reduction in TGFbeta1-induced fibronectin protein expression measured for 24 hrs; assay type: functional, cell-based; conditions: Rattus norvegicus, dose 2.5-20 µM
Mus musculus [5] = assay: Anti-hepatic fibrosis activity in MDR2 knockout liver injury mouse model assessed as reduction in ACTA2 mRNA expression at 100 mg/kg, po administered once a day for 4 weeks by qRT-PCR analysis; assay type: functional, organism-based
Rattus norvegicus [6] = assay: Anti-hepatic fibrosis activity in bile duct ligation rat model assessed as reduction in ITGAV protein expression at 100 mg/kg, po administered for 14 days by Western blot analysis; assay type: functional, organism-based; conditions: time 14.0 day
Rattus norvegicus [7] = assay: Anti-hepatic fibrosis activity in bile duct ligation rat model assessed as reduction in bile duct hyperplasia at 100 mg/kg, po administered for 14 days by hematoxylin and eosin staining based analysis; assay type: functional, organism-based; conditions: time 14.0 day
[8] = biological target: Collagen alpha-1(I) chain (Homo sapiens, UniProt P02452); assay: Inhibition of COL1A1 (unknown origin) expressed in human LX2 cells at 80 uM measured for 24 hrs relative to control; assay type: cell-based
Mus musculus [9] = assay: Anti-hepatic fibrosis activity in MDR2 knockout liver injury mouse model assessed as reduction in CTGF mRNA expression at 100 mg/kg, po administered once a day for 4 weeks by qRT-PCR analysis; assay type: functional, organism-based
LX-2 [10] = assay: Downregulation of EWSR1 mRNA level in human LX2 cells; assay type: functional, cell-based
Mus musculus [11] = assay: Anti-hepatic fibrosis activity in MDR2 knockout liver injury mouse model assessed as reduction in collagen deposition at 100 mg/kg, po administered once a day for 4 weeks by H and E staining analysis; assay type: functional, organism-based
HSC-T6 [12] = assay: Anti-fibrosis effect in HSC-T6 cells assessed as reduction in TGFbeta1-induced alpha-SMA protein expression measured for 24 hrs; assay type: functional, cell-based; conditions: Rattus norvegicus, dose 2.5-20 µM
Mus musculus [13] = assay: Anti-hepatic fibrosis activity in MDR2 knockout liver injury mouse model assessed as reduction in TGFbeta1 protein expression at 100 mg/kg, po administered once a day for 4 weeks by Western blot analysis; assay type: functional, organism-based
LX-2 [14] = assay: Anti-hepatic fibrosis activity in human LX2 cells assessed as inhibition of TGF-beta1 induced CTGF mRNA expression at 20 uM incubated for 24 hrs by qRT-PCR analysis; assay type: functional, cell-based
Mus musculus [15] = assay: Anti-hepatic fibrosis activity in MDR2 knockout liver injury mouse model assessed as reduction in ALT level at 100 mg/kg, po administered once a day for 4 weeks (reference value: 397+/-123.30 U/L); assay type: functional
Rattus norvegicus [16] = assay: Anti-hepatic fibrosis activity in bile duct ligation rat model assessed as reduction in bile duct proliferation at 100 mg/kg, po administered for 14 days by Immunofluorescence analysis; assay type: functional, organism-based; conditions: time 14.0 day
Rattus norvegicus [17] = assay: Anti-hepatic fibrosis activity in bile duct ligation rat model assessed as reduction in CTGF mRNA expression at 100 mg/kg, po administered for 14 days by qRT-PCR analysis; assay type: functional, organism-based; conditions: time 14.0 day
LX-2 [18] = assay: Anti-fibrosis effect in human LX2 cells assessed as reduction in TGFbeta1-induced MMP-2 protein expression at 10 to 20 uM measured for 24 hrs; assay type: functional, cell-based; conditions: dose 10-20 µM
LX-2 [19] = assay: Effect on EWSR1 expression in human LX2 cells at 2.5 to 20 uM; assay type: functional, cell-based; conditions: dose 2.5-20 µM
LX-2 [20] = assay: Anti-fibrosis effect in human LX2 cells assessed as reduction in TGFbeta1-induced alpha-SMA mRNA expression at 10 to 20 uM measured for 24 hrs; assay type: functional, cell-based; conditions: dose 10-20 µM
LX-2 [21] = assay: Anti-fibrosis effect in human LX2 cells assessed as reduction in TGFbeta1-induced fibronectin mRNA expression at 10 to 20 uM measured for 24 hrs; assay type: functional, cell-based; conditions: dose 10-20 µM
Mus musculus [22] = assay: Anti-hepatic fibrosis activity in MDR2 knockout liver injury mouse model assessed as reduction in MMP2 mRNA expression at 100 mg/kg, po administered once a day for 4 weeks by qRT-PCR analysis; assay type: functional, organism-based
LX-2 [23] = assay: Anti-fibrosis effect in human LX2 cells assessed as reduction in TGFbeta1-induced fibronectin protein expression at 10 to 20 uM measured for 24 hrs; assay type: functional, cell-based; conditions: dose 10-20 µM
Mus musculus [24] = assay: Anti-hepatic fibrosis activity in MDR2 knockout liver injury mouse model assessed as reduction in ALP level at 100 mg/kg, po administered once a day for 4 weeks (reference value: 386.80+/-179.56 U/L); assay type: functional
Rattus norvegicus [25] = assay: Anti-hepatic fibrosis activity in bile duct ligation rat model assessed as reduction in LRAT positive cells in liver at 100 mg/kg, po administered for 14 days by Immunofluorescence analysis; assay type: functional, organism-based; conditions: time 14.0 day
Mus musculus [26] = assay: Anti-hepatic fibrosis activity in MDR2 knockout liver injury mouse model assessed as reduction in COL1A1 protein expression at 100 mg/kg, po administered once a day for 4 weeks by Western blot analysis; assay type: functional, organism-based
LX-2 [27] = assay: Anti-hepatic fibrosis activity in human LX2 cells assessed as inhibition of TGF-beta1 induced alpha-SMA mRNA expression at 20 uM incubated for 24 hrs by qRT-PCR analysis; assay type: functional, cell-based
LX-2 [28] = assay: Anti-hepatic fibrosis activity in human LX2 cells assessed as inhibition of TGFbeta1-induced MMP-2 protein expression at 20 uM incubated for 24 hrs by western blot analysis; assay type: functional, cell-based
LX-2 [29] = assay: Anti-fibrosis effect in human LX2 cells assessed as reduction in TGFbeta1-induced integrin subunit alpha-V protein expression at 10 to 20 uM measured for 24 hrs; assay type: functional, cell-based; conditions: dose 10-20 µM
COL1A1 = assay: Selectivity index, ratio of CC50 for cytotoxicity against human LX2 cells assessed as reduction in cell viability to IC50 for inhibition of COL1A1 (unknown origin) expressed in human LX2 cells; assay type: toxicity, cell-based; conditions: LX-2 cells, read-out: Ratio CC50/IC50
Rattus norvegicus [30] = assay: Anti-hepatic fibrosis activity in bile duct ligation rat model assessed as reduction in bile TBiL level at 100 mg/kg, po administered for 14 days; assay type: functional; conditions: time 14 day

Collagen alpha-1(I) chain, sequence (P02452 whole entry): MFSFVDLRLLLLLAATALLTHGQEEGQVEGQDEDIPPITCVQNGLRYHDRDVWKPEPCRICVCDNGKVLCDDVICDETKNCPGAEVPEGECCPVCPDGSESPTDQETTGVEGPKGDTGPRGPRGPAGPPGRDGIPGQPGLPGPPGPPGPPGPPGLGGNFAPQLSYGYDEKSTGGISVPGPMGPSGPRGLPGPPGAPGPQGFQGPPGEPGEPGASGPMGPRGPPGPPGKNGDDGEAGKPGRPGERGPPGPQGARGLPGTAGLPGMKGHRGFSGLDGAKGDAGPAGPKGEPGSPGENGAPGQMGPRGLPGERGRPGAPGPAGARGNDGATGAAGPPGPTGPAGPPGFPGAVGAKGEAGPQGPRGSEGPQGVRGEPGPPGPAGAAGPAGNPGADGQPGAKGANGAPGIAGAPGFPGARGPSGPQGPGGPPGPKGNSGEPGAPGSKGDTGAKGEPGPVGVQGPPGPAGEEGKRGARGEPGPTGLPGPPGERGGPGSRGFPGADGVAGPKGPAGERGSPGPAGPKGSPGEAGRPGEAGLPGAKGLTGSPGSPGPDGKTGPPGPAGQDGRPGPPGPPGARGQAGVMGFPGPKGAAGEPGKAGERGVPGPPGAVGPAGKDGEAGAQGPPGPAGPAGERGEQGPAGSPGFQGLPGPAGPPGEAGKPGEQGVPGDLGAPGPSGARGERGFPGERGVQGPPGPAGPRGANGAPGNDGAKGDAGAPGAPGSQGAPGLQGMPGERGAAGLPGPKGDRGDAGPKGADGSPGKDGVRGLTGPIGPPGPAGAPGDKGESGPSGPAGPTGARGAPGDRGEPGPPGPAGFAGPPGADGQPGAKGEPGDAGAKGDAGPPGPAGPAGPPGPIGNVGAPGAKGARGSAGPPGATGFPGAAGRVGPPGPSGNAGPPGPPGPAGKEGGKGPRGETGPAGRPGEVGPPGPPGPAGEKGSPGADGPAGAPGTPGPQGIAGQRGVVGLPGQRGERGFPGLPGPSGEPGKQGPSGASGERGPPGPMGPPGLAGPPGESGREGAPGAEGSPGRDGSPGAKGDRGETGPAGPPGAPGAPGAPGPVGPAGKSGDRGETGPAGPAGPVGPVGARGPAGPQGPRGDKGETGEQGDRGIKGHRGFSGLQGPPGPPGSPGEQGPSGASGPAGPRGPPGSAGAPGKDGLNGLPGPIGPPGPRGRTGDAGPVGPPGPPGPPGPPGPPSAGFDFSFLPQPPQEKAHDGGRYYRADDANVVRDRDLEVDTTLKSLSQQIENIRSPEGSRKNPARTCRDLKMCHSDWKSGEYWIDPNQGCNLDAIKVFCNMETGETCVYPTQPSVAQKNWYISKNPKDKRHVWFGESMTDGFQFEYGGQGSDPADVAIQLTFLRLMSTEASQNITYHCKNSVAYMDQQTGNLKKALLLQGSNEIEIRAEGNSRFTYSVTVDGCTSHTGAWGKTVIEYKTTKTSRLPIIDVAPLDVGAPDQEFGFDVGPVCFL

For CCCC[C@@H]1[C@H]2CCCN3CCC[C@@H](CN1C(=O)Nc1c(CC)cccc1CC)[C@@H]23, the Activity (LX-2 [1]) was “Active”, the Activity (LX-2 [2]) was “Active” and the Activity (LX-2 [3]) was “Active”. The Activity (HSC-T6 [4]) was “Dose-Dependent Effect”, the Activity (Mus musculus [5]) was “Active” and the Activity (Rattus norvegicus [6]) was “Active”. The Activity (Rattus norvegicus [7]) was “Active”, the inhibition [8] was 99.8% and the Activity (Mus musculus [9]) was “Active”. For the same molecule, the Activity (LX-2 [10]) was “inactive”, the Activity (Mus musculus [11]) was “Active” and the Activity (HSC-T6 [12]) was “Dose-Dependent Effect”. The Activity (Mus musculus [13]) was “Active”, the Activity (LX-2 [14]) was “Active” and the Activity (Mus musculus [15]) was 295.2 U/L. The Activity (Rattus norvegicus [16]) was “Active”, the Activity (Rattus norvegicus [17]) was “Active” and the Activity (LX-2 [18]) was “Active”. The Activity (LX-2 [19]) was “inactive”, the Activity (LX-2 [20]) was “Active” and the Activity (LX-2 [21]) was “Active”. The Activity (Mus musculus [22]) was “Active”, the Activity (LX-2 [23]) was “Active” and the Activity (Mus musculus [24]) was 278.8 U/L. For the same molecule, the Activity (Rattus norvegicus [25]) was “Active”, the Activity (Mus musculus [26]) was “Active” and the Activity (LX-2 [27]) was “Active”. For the same molecule, the Activity (LX-2 [28]) was “Active”, the Activity (LX-2 [29]) was “Active” and the selectivity ratio (COL1A1) was 37.4. The Activity (Rattus norvegicus [30]) was 4.91 µmol/L.

From ChEMBL document CHEMBL5338827, “Evolution and Discovery of Matrine Derivatives as a New Class of Anti-Hepatic Fibrosis Agents Targeting Ewing Sarcoma Breakpoint Region 1 (EWSR1)” (J Med Chem, 2023)
